Experimental data published in ChEMBL document CHEMBL5257091, “Hydrazinecarbonyl-thiazol-2-acetamides with pronounced apoptotic behavior: synthesis, in vitro/in vivo anti-proliferative activity and molecular modeling simulations” (Bioorg Med Chem Lett, 2023).

How the values were obtained:
[1] = Cytotoxicity against human WI-38 cells assessed as inhibition of cell growth incubated for 24 hrs by MTT assay; format: toxicity, cell-based
[2] = Selectivity index, ratio of IC50 for cytotoxicity against human WI-38 cells to IC50 for antiproliferative activity against human HEp-2 cells; format: toxicity, cell-based; conditions: WI-38 cells and HEp-2 cells, read-out: Ratio IC50
[3] = Selectivity index, ratio of IC50 for cytotoxicity against human WI-38 cells to IC50 for antiproliferative activity against human HeLa cells; format: toxicity, cell-based; conditions: WI-38 cells and HeLa cells, read-out: Ratio IC50
HepG2 = test: Antiproliferative activity against human HepG2 cells assessed as inhibition of cell growth incubated for 24 hrs by MTT assay; format: functional, cell-based; conditions: HepG2, 24 h
[4] = molecular target: Epidermal growth factor receptor (Homo sapiens, UniProt P00533); test: Inhibition of EGFR (unknown origin) by fluorimetric assay
Sequence of Epidermal growth factor receptor (P00533 whole entry): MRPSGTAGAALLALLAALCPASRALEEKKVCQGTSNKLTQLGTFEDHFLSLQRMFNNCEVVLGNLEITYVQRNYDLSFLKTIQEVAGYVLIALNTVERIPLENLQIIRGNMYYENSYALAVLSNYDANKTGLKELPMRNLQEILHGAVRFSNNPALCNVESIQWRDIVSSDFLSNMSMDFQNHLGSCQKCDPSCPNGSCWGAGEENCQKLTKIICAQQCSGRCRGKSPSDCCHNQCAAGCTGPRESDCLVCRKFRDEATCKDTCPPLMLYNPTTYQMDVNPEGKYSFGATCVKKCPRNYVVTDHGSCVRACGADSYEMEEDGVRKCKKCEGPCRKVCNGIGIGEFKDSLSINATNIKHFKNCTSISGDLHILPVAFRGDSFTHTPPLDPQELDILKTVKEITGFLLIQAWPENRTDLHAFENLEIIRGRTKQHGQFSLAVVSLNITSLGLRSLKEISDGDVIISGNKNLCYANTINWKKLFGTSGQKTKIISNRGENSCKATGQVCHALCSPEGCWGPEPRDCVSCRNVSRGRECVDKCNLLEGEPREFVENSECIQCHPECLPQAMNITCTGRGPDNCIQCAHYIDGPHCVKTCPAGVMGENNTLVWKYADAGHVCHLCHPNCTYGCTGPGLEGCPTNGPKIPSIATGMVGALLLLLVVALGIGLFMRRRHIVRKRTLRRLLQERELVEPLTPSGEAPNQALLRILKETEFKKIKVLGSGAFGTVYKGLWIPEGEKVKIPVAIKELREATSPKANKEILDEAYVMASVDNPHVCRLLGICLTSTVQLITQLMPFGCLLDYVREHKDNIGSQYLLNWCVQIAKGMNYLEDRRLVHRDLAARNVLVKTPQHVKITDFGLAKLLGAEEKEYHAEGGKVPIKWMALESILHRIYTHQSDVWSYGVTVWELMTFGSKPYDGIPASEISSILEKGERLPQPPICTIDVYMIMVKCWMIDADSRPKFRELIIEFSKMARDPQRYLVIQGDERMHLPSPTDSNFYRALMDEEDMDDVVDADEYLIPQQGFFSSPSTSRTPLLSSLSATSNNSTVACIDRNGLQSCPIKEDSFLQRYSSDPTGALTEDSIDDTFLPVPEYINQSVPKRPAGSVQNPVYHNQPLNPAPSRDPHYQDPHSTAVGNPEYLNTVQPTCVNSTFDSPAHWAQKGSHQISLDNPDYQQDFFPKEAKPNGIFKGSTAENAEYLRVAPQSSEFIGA

MCF7 [5] = test: Antiproliferative activity against human MCF7 cells assessed as inhibition of cell growth incubated for 24 hrs by MTT assay; format: functional, cell-based; conditions: MCF7, 24 h
PC-3 = test: Antiproliferative activity against human PC-3 cells assessed as inhibition of cell growth incubated for 24 hrs by MTT assay; format: functional, cell-based; conditions: PC-3, 24 h
[6] = Selectivity index, ratio of IC50 for cytotoxicity against human WI-38 cells to IC50 for antiproliferative activity against human PC-3 cells; format: toxicity, cell-based; conditions: WI-38 cells and PC-3 cells, read-out: Ratio IC50
[7] = Selectivity index, ratio of IC50 for cytotoxicity against human WI-38 cells to IC50 for antiproliferative activity against human HepG2 cells; format: toxicity, cell-based; conditions: WI-38 cells and HepG2 cells, read-out: Ratio IC50
Dihydrofolate reductase = molecular target: T1, Dihydrofolate reductase (Homo sapiens, UniProt P00374); test: Inhibition of DHFR (unknown origin) incubated for 2 to 5 mins by absorbance based analysis
T1 sequence (P00374 whole entry): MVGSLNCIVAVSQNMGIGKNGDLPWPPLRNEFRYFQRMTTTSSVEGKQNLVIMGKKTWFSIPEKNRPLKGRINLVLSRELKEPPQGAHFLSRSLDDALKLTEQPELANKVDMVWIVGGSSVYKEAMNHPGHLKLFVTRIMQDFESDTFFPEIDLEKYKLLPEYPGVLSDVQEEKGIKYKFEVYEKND

HeLa [8] = test: Antiproliferative activity against human HeLa cells assessed as inhibition of cell growth incubated for 24 hrs by MTT assay; format: functional, cell-based
[9] = Selectivity index, ratio of IC50 for cytotoxicity against human WI-38 cells to IC50 for antiproliferative activity against human MCF7 cells; format: toxicity, cell-based; conditions: WI-38 cells and MCF7 cells, read-out: Ratio IC50
[10] = Selectivity index, ratio of IC50 for cytotoxicity against human WI-38 cells to IC50 for antiproliferative activity against human HCT-116 cells; format: toxicity, cell-based; conditions: WI-38 cells and HCT-116 cells, read-out: Ratio IC50
HEp-2 = test: Antiproliferative activity against human HEp-2 cells assessed as inhibition of cell growth incubated for 24 hrs by MTT assay; format: functional, cell-based; conditions: HEp-2, 24 h
HCT-116 = test: cells; conditions: Homo sapiens, HCT-116, 24 h
Description: Antiproliferative activity against human HCT-116 cells assessed as inhibition of cell growth incubated for 24 hrs by MTT assay

HeLa [11] = test: Induction of cell cycle arrest in human HeLa cells assessed as accumulation of cells at G2/M phase incubated for 24 hrs by PI staining based flow cytometry analysis (reference value: 10.38%); format: functional
HeLa [12] = test: Induction of cell cycle arrest in human HeLa cells assessed as accumulation of cells at pre-G1 phase incubated for 24 hrs by PI staining based flow cytometry analysis (reference value: 1.85%); format: functional
[13] = Toxicity in Swiss albino mouse implanted with mouse Ehrlich cells assessed as reduction in body weight gain at 10 mg/kg, iv administered once daily for 20 days relative to control; format: organism-based; set-up: scale not given: the % may be the effect or the level left; conditions: in vivo, 480 h, time 20 day
HeLa [14] = test: Induction of apoptosis in human HeLa cells assessed as late apoptotic cells incubated for 24 hrs by annexin V-FITC/PI staining based flow cytometry analysis (reference value: 0.16%); format: functional
HeLa [15] = test: Induction of cell cycle arrest in human HeLa cells assessed as accumulation of cells at S phase incubated for 24 hrs by PI staining based flow cytometry analysis (reference value: 28.54%); format: functional
MCF7 [16] = test: Induction of apoptosis in human MCF7 cells assessed as late apoptotic cells incubated for 24 hrs by annexin V-FITC/PI staining based flow cytometry analysis (reference value: 0.21%); format: functional
HeLa [17] = test: Induction of cell cycle arrest in human HeLa cells assessed as cell debris incubated for 24 hrs by PI staining based flow cytometry analysis (reference value: 2.13%); format: functional
MCF7 [18] = test: Induction of apoptosis in human MCF7 cells assessed as early apoptotic cells incubated for 24 hrs by annexin V-FITC/PI staining based flow cytometry analysis (reference value: 0.62%); format: functional
MCF7 [19] = test: Induction of cell cycle arrest in human MCF7 cells assessed as accumulation of cells at pre-G1 phase incubated for 24 hrs by PI staining based flow cytometry analysis (reference value: 2.11%); format: functional
HeLa [20] = test: Induction of apoptosis in human HeLa cells assessed as necrotic cells incubated for 24 hrs by annexin V-FITC/PI staining based flow cytometry analysis (reference value: 1.15%); format: functional
HeLa [21] = test: Induction of cell cycle arrest in human HeLa cells assessed as cell aggregates incubated for 24 hrs by PI staining based flow cytometry analysis (reference value: 1.46%); format: functional
[22] = Toxicity in Swiss albino mouse implanted with mouse Ehrlich cells assessed as mean body weight at 10 mg/kg, iv administered once daily for 20 days (reference value: 30 g); format: organism-based; conditions: in vivo, 480 h, time 20 day
MCF7 [23] = test: Induction of apoptosis in human MCF7 cells assessed as necrotic cells incubated for 24 hrs by annexin V-FITC/PI staining based flow cytometry analysis (reference value: 1.28%); format: functional
MCF7 [24] = test: Induction of cell cycle arrest in human MCF7 cells assessed as accumulation of cells at G0/G1 phase incubated for 24 hrs by PI staining based flow cytometry analysis (reference value: 52.61%); format: functional
HeLa [25] = test: Induction of cell cycle arrest in human HeLa cells assessed as accumulation of cells at G0/G1 phase incubated for 24 hrs by PI staining based flow cytometry analysis (reference value: 61.08%); format: functional
MCF7 [26] = test: Induction of apoptosis in human MCF7 cells assessed as total apoptotic cells incubated for 24 hrs by annexin V-FITC/PI staining based flow cytometry analysis (reference value: 2.11%); format: functional
MCF7 [27] = test: Induction of cell cycle arrest in human MCF7 cells assessed as accumulation of cells at S phase incubated for 24 hrs by PI staining based flow cytometry analysis (reference value: 35.19%); format: functional
HeLa [28] = test: Induction of apoptosis in human HeLa cells assessed as total apoptotic cells incubated for 24 hrs by annexin V-FITC/PI staining based flow cytometry analysis (reference value: 1.85%); format: functional
MCF7 [29] = test: Induction of cell cycle arrest in human MCF7 cells assessed as accumulation of cells at G2/M phase incubated for 24 hrs by PI staining based flow cytometry analysis (reference value: 12.2%); format: functional
MCF7 [30] = test: Induction of cell cycle arrest in human MCF7 cells assessed as cell aggregates incubated for 24 hrs by PI staining based flow cytometry analysis (reference value: 1.75%); format: functional
Ehrlich = test: Antitumor activity against mouse Ehrlich cells implanted in Swiss albino mouse assessed as reduction in tumor volume at 10 mg/kg, iv administered once daily for 20 days relative to control; format: functional; set-up: scale not given: the % may be the effect or the level left; conditions: time 20 day
HeLa [31] = test: Induction of apoptosis in human HeLa cells assessed as early apoptotic cells incubated for 24 hrs by annexin V-FITC/PI staining based flow cytometry analysis (reference value: 0.54%); format: functional
MCF7 [32] = test: Induction of cell cycle arrest in human MCF7 cells assessed as cell debris incubated for 24 hrs by PI staining based flow cytometry analysis (reference value: 2.12%); format: functional

SMILES: CC(=O)Nc1nc(C(=O)NNC(=O)CCN2CCN(C)CC2)cs1
- IC50 at 24 h [1]: 46.9 µM
- selectivity ratio [2]: 4.17
- selectivity ratio [3]: 5.92
- IC50 (HepG2): 9.85 µM
- IC50 [4]: 0.131 µM
- IC50 (MCF7 [5]): 8.36 µM
- IC50 (PC-3): 14.3 µM
- selectivity ratio [6]: 3.27
- selectivity ratio [7]: 4.76
- IC50 (Dihydrofolate reductase): 0.678 µM
- IC50 (HeLa [8]): 7.92 µM
- selectivity ratio [9]: 5.6
- selectivity ratio [10]: 2.54
- IC50 (HEp-2): 11.2 µM
- IC50 (HCT-116): 18.4 µM

SMILES: CC(=O)Nc1nc(C(=O)NNC(=O)CCN2CCN(Cc3ccccc3)CC2)cs1
- IC50 (HepG2): 28.7 µM
- IC50 (MCF7 [5]): 29.3 µM
- IC50 (PC-3): 34.4 µM
- IC50 (HeLa [8]): 23.6 µM
- IC50 (HEp-2): 39 µM
- IC50 (HCT-116): 37.1 µM

SMILES: CC(=O)Nc1nc(C(=O)NNC(=O)CN2CCN(C)CC2)cs1
- IC50 (HepG2): 83.6 µM
- IC50 (MCF7 [5]): 62.8 µM
- IC50 (HeLa [8]): 78.6 µM
- IC50 (HEp-2): 89.9 µM
- IC50 (HCT-116): 91.8 µM

SMILES: CC(=O)Nc1nc(C(=O)NNC(=O)CCl)cs1
- IC50 (HepG2): 43.8 µM
- IC50 (MCF7 [5]): 39.1 µM
- IC50 (PC-3): 54.7 µM
- IC50 (HeLa [8]): 35.3 µM
- IC50 (HEp-2): 58 µM
- IC50 (HCT-116): 52.3 µM

SMILES: CC(=O)Nc1nc(C(=O)NNC(=O)CN2CCCCC2)cs1
- IC50 at 24 h [1]: 60.5 µM
- selectivity ratio [2]: 3.07
- selectivity ratio [3]: 4.34
- IC50 (HepG2): 12.4 µM
- IC50 (MCF7 [5]): 16.4 µM
- IC50 (PC-3): 18 µM
- selectivity ratio [6]: 3.35
- selectivity ratio [7]: 4.88
- IC50 (HeLa [8]): 13.9 µM
- selectivity ratio [9]: 3.68
- selectivity ratio [10]: 2.47
- IC50 (HEp-2): 19.7 µM
- IC50 (HCT-116): 24.5 µM

SMILES: CC(=O)Nc1nc(C(=O)NNC(=O)CCN2CCCCC2)cs1
- IC50 at 24 h [1]: 39.9 µM
- Activity (HeLa [11]): 2.89%
- Activity (HeLa [12]): 45.81%
- Activity [13]: 18.3%
- Activity (HeLa [14]): 24.39%
- selectivity ratio [2]: 5.24
- selectivity ratio [3]: 23.9
- Activity (HeLa [15]): 44.39%
- Activity (MCF7 [16]): 22.72%
- IC50 (HepG2): 6.21 µM
- Activity (HeLa [17]): 2.19%
- IC50 [4]: 9.2 µM
- IC50 (MCF7 [5]): 4.87 µM
- IC50 (PC-3): 8.14 µM
- Activity (MCF7 [18]): 8.31%
- Activity (MCF7 [19]): 36.22%
- Activity (HeLa [20]): 7.41%
- selectivity ratio [6]: 4.9
- Activity (HeLa [21]): 1.55%
- Activity [22]: 29.4 g
- Activity (MCF7 [23]): 5.19%
- Activity (MCF7 [24]): 57.43%
- Activity (HeLa [25]): 52.72%
- selectivity ratio [7]: 6.43
- Activity (MCF7 [26]): 36.22%
- IC50 (Dihydrofolate reductase): 0.262 µM
- IC50 (HeLa [8]): 1.67 µM
- selectivity ratio [9]: 8.19
- Activity (MCF7 [27]): 38.66%
- Activity (HeLa [28]): 45.81%
- Activity (MCF7 [29]): 3.91%
- Activity (MCF7 [30]): 2.19%
- selectivity ratio [10]: 3.37
- Activity (Ehrlich): 72.3%
- IC50 (HEp-2): 7.62 µM
- IC50 (HCT-116): 11.8 µM
- Activity (HeLa [31]): 14.01%
- Activity (MCF7 [32]): 1.46%
